We go through eleven molecules from patent US6610504B1, “Methods of determining SAM-dependent methyltransferase activity using a mutant SAH hydrolase” (General Atomics, priority 2000, dated 2003).

Positions count from the first letter of the chain named. Names and notes keep the numbering of the source.

The Km is the substrate concentration at which the rate is half of its maximum.

Data set [1] deals with T1, ALBP (Mus musculus, UniProt P04117).
T1 sequence (P04117 1-132): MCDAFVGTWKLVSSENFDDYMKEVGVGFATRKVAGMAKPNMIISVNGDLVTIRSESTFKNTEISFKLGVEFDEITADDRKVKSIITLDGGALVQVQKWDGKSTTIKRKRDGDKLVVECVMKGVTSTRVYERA
To be noted: displacement of 1,8-ANS from ALBP, cited from earlier work; for Ki: read-out: apparent inhibitor constant (Ki).

Data set [2] deals with T2, KLBP (Mus musculus, UniProt Q05816).
T2 sequence (Q05816 1-135): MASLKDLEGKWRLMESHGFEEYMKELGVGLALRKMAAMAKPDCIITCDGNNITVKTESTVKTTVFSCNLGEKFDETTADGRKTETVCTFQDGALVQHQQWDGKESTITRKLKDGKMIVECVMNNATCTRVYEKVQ
The conditions noted are these: displacement of 1,8-ANS from KLBP; cited from earlier work.

The target in data set [3] is T3, CRBP (Homo sapiens, UniProt P09455).
T3 sequence (P09455 1-135): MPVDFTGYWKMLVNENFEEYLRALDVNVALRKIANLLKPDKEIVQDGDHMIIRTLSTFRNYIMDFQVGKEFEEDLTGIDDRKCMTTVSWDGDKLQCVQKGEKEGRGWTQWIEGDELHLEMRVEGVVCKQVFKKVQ
The conditions noted are these: displacement of 1,8-ANS from CRBP; cited from earlier work.

In data set [4] the target is cellular retinoic acid-binding protein I (CRABPI) (Homo sapiens, UniProt P29762). To be noted: read-out: apparent dissociation constant; probe binding to CRABPI; cited from earlier work.
The target in data set [5] is T4, keratinocyte lipid-binding protein (KLBP) (Mus musculus, UniProt Q05816).
T4 sequence (Q05816 1-135): T2 sequence (Q05816 1-135)
To be noted: read-out: apparent dissociation constant (Kd); probe binding to KLBP; cited from earlier work.

Data set [6] concerns the target T5, cellular retinol-binding protein (CRBP) (Homo sapiens, UniProt P09455).
T5 sequence (P09455 1-135): T3 sequence (P09455 1-135)
The conditions noted are these: read-out: apparent dissociation constant; probe binding to CRBP; cited from earlier work.

In data set [7] the target is T6, serum vitamin D binding protein (Homo sapiens, UniProt P02774).
T6 sequence (P02774 17-474): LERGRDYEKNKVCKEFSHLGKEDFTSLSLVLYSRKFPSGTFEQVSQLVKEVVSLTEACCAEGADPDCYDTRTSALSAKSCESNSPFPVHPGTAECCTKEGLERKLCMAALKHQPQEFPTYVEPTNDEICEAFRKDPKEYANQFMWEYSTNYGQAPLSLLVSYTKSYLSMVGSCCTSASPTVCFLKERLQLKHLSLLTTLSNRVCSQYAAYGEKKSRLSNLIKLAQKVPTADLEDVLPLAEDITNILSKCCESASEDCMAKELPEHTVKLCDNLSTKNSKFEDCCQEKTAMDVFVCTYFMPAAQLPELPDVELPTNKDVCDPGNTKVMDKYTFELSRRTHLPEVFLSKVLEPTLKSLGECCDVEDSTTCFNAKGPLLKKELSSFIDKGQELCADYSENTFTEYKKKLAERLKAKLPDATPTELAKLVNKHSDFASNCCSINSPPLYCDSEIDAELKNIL
The conditions noted are these: binding to serum vitamin D binding protein, Langmuir isotherm, nonlinear least-squares fit; cited from earlier work.

In data set [8] the target is T7, SAH hydrolase (Homo sapiens, UniProt P23526).
T7 construct: made in house; host or cells: E. coli JM109, vector pKK223-3
As to the kind of experiment: SAH hydrolase activity, hydrolytic direction (kinetic constants for SAH). The data set is classed as biochemical. To be noted: substrate SAH. How it is done:
The assay of SAH hydrolase activity in the hydrolytic direction was performed as described in Yuan et al., J. Biol. Chem., 271:28008-28016, 1996). The assay measures the hydrolysis of SAH into Ado and Hcy. The reaction product Hcy was derivatized by thiol specific reagent DTNB for colometric determination at 412 nm. The assay for SAH hydrolase in the synthetic direction was measured by the formation of SAH from substrate Ado and Hcy using HPLC (see, Yuan et al., J. Biol. Chem., 268:17030-17037 (1993). One unit of the enzyme activity was defined as the amount of enzyme that can hydrolyze or synthesize 1 μmole of SAH/min/mg.
Mutant SAH hydrolase (e.g., F302S) was specifically fluorescence labels on Cys421, an non-essential cysteine residue which is located on the surface of the protein that is not involved in substrate binding and catalysis. Cys421 residue is readily accessible by thiol reactive molecules, and can be modified without effect the binding affinity of the enzyme. Thiol specific reactive probes such as 7-diethylamino-3(4′-maleimidylphenyl)-4-methylcoumarin (CPM) can specifically label protein thiols. Mutant SAH hydrolase (F302S) (0.5 mg/ml) in 50 mM phosphate buffer, pH 7.2, was incubated with 2 mM of adenine to protect other thiols in the substrate binding site, followed by addition of CPM to final concentration of 50 μM. The reaction mixture was incubated at room temperature for 30 min. followed by gel filtration on a size exclusion column (Sephacryl S-300, […]×60 cm) to remove adenine and excess CPM. The CPM-labeled F302S mutant SAH hydrolase (2 mg/ml) was kept in 50 mM phosphate buffer containing 20% glycerol at −20° C. The comparison of Km (SAH) and Kcat (SAH) for wild type and mutant F302S is shown below in Table 10.

T7 sequence (P23526 whole entry): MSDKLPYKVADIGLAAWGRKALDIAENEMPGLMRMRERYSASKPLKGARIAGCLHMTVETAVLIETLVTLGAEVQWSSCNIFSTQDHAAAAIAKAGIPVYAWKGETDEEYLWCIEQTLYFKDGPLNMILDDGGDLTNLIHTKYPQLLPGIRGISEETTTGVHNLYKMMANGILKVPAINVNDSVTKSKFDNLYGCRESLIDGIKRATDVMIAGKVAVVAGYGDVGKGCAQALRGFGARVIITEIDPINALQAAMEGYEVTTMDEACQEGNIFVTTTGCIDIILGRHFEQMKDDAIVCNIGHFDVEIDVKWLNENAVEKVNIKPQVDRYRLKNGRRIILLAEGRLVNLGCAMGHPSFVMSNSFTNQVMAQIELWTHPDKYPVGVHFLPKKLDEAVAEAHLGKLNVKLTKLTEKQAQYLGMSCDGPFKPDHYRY
cellular retinoic acid-binding protein I (CRABPI), sequence (P29762 whole entry, species assumed): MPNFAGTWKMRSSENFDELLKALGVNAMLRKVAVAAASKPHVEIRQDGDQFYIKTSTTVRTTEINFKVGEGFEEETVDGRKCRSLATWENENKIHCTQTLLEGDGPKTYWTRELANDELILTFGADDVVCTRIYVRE

As to `CC1=C(/C=C/C(C)=C/C=C/C(C)=C/CO)C(C)(C)CCC1` [all-trans-retinol], the “displacement of the fluorophore from ALBP” value in data set [1] was “did not displace”. The “bound by KLBP” value in data set [2] is reported as “neither octanoic acid nor all-trans-retinol were bound”.

Take `CCCCCCCC/C=C\CCCCCCCC(=O)O` [Oleic acid]: the figures for the Ki in data set [1] and in data set [2] were 134 nM and 420 nM, respectively.

For the molecule `CC1=C(/C=C/C(C)=C/C=C/C(C)=C/C=O)C(C)(C)CCC1` [all-trans-retinal], the Ki in data set [3] is 1700 nM.

Regarding `O=S(=O)(O)c1cccc2cccc(Nc3ccccc3)c12` [1,8-ANS, 1-anilinonapthalene 8-sulfonic acid], the results for the Kd in data set [4], in data set [5] and in data set [6] were 25000 nM, 530 nM and 7700 nM, respectively.

On to 25-hydroxyvitamin D, for which the Kd in data set [7] is 5590 nM.

For the molecule `CCCCC/C=C\C/C=C\C/C=C\C/C=C\CCCC(=O)O` [arachidonic acid], the Ki in data set [2] was 400 nM.

In the case of `CC1=C(/C=C/C(C)=C/C=C/C(C)=C/C(=O)O)C(C)(C)CCC1` [all-trans-retinoic acid], the figures for the Ki in data set [3], in data set [1] and in data set [2] were 5300 nM, 870 nM and 3600 nM, respectively.

With `CCCCCCCC(=O)O` [octanoic acid], in data set [1], the “displacement of the fluorophore from ALBP” value is “did not displace”. For the same molecule, the “bound by KLBP” value in data set [2] is recorded as “neither octanoic acid nor all-trans-retinol were bound”.

For vitamin D, in data set [7], the Kd was 91700 nM.

B1: wild type: Human placental SAH hydrolase, wild type, expressed in E. coli JM109 (protein, UniProt P23526 2-432, looked up)
Adenosylhomocysteinase: SDKLPYKVADIGLAAWGRKALDIAENEMPGLMRMRERYSASKPLKGARIAGCLHMTVETAVLIETLVTLGAEVQWSSCNIFSTQDHAAAAIAKAGIPVYAWKGETDEEYLWCIEQTLYFKDGPLNMILDDGGDLTNLIHTKYPQLLPGIRGISEETTTGVHNLYKMMANGILKVPAINVNDSVTKSKFDNLYGCRESLIDGIKRATDVMIAGKVAVVAGYGDVGKGCAQALRGFGARVIITEIDPINALQAAMEGYEVTTMDEACQEGNIFVTTTGCIDIILGRHFEQMKDDAIVCNIGHFDVEIDVKWLNENAVEKVNIKPQVDRYRLKNGRRIILLAEGRLVNLGCAMGHPSFVMSNSFTNQVMAQIELWTHPDKYPVGVHFLPKKLDEAVAEAHLGKLNVKLTKLTEKQAQYLGMSCDGPFKPDHYRY
In the case of B1, in data set [8], the “Kcat (SAH)” value is given as 3.8 S^−1 and the Km turned out to be 7.9 µM.

B2: F302S: Mutant human SAH hydrolase, Phe 302 to Ser (protein, UniProt P23526 2-432, looked up, variant F302S)
Adenosylhomocysteinase: B1 Adenosylhomocysteinase with F301S
With B2, in data set [8], the “Kcat (SAH)” value was 0.1 S^−1 and the Km worked out at 1 µM.
